Earlier results as cited in patent US10545077B2, “Solid phase microextraction coating” (JP SCIENTIFIC LIMITED, priority 2016, dated 2020).

Row | LogP | Structure (SMILES)
1 | 1.66 | C[C@]12C=CC(=O)C=C1CC[C@@H]1[C@@H]2[C@@H](O)C[C@@]2(C)[C@H]1CC[C@]2(O)C(=O)CO [Prednisolone]
2 | 2.42 | CCCC1O[C@@H]2C[C@H]3[C@@H]4CCC5=CC(=O)C=C[C@]5(C)[C@H]4[C@@H](O)C[C@]3(C)[C@]2(C(=O)CO)O1 (stereo partly drawn) [Budesonide]
3 | 1.87 | CC(C)NCC(O)COc1ccc(COCCOC(C)C)cc1 (stereo not drawn) [Bisoprolol]
